Assay [1] can be described thus: inhibitors of TNFa-induced VCAM1 expression, confirmation, imaging, TNFa stimulus, retest and dose response (AID 1013).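 For cell count: compound on cells 1 h before TNFa then 24 h more.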 The conditions noted are these: TNFa-stimulated cells, VCAM1 expression imaging; cell count; at 10 µM; stronger effect = lower value.
Assay [2] concerns TNFa-stimulated cells, VCAM1 expression imaging. The assay is described as above.

The values below come from PubChem BioAssay AID1013 (Columbia University Molecular Screening Center, 2008).

Activity calls are given as the source filed them. The rule behind the calls is not given here. Some results are limits rather than exact numbers.

As a reminder, the IC50 is the midpoint of a concentration-inhibition curve. In turn, `Cc1cccc(CS(=O)(=O)c2nnc([C@H](Cc3ccccc3)NC(=O)OC(C)(C)C)o2)c1` returned a cell count in assay [1] of 99.2%. In assay [2], the IC50 is > 10 µM (inactive).
On the same counts, the results for `Cc1ccc(O)c(NC(=O)CCC2CCCCC2)c1` are 113% and > 10 µM (inactive).
The molecule `Cc1ccc(O)c(NC(=O)C2CC(c3c(F)cccc3Cl)=NO2)c1` (stereo unspecified) gave a cell count in assay [1] of 105%. In assay [2], the IC50 was > 10 µM (inactive).
On the same counts, the results for `O=C1C(=O)c2ccccc2-c2ccccc21` are 44.1% and 3 µM.
The like results for `Cc1cc(C)c(/C=N/NC(N)=O)c(C)c1/C=N/NC(N)=O` were, in that order, 71.9% and 0.517 µM.
The like results for `CCCOC(=O)c1[nH]c2c(c1C)C(=O)CC(c1cccs1)C2` (stereo unspecified) were, in that order, 89% and > 10 µM (inactive).
As to `Cc1cc(NC(=O)CSc2nc(-c3ccco3)cc(C(F)(F)F)n2)no1`, in assay [1], the cell count worked out at 94.3%. For the same molecule, in assay [2], the IC50 was > 10 µM (inactive).
The like results for `Cc1ccccc1CS(=O)(=O)c1nnc([C@H](Cc2ccccc2)NC(=O)OC(C)(C)C)o1` were, in that order, 114% and > 10 µM (inactive).
On the same counts, the results for `CCC1=Nc2cc(C(=O)NCCCOC)ccc2Sc2ccccc21` are 34.9% and 1.67 µM.
The like results for `O=C(OCn1ncc(Br)c(Br)c1=O)c1ccc(F)cc1` were, in that order, 2.02% and 2.86 µM.
`O=C1c2cccc3c([N+](=O)[O-])ccc(c23)C(=O)N1c1ccc(Cl)cn1`: the cell count in assay [1] came to 103%. In addition, the IC50 in assay [2] was > 10 µM (inactive).
On the same counts, the results for `O=S(=O)(C/C(=C/CO)S(=O)(=O)c1ccccc1)c1ccccc1` are 9.93% and 1.63 µM.
The like results for `Cc1ccc2[nH]c(-c3ccccc3)cc(=O)c2c1` were, in that order, 63.3% and 4.49 µM.
Consider `CC(C)Oc1ccccc1C1CC(=O)Nc2cc3c(cc21)OCCO3` (stereo unspecified), for which the cell count in assay [1] came out at 104%. For the same molecule, the IC50 in assay [2] was > 10 µM (inactive).
On the same counts, the results for `COc1cc(C2C3=C(Nc4ncnn42)c2ccccc2CC3)cc(OC)c1OC` (stereo unspecified) are 27.6% and 1.76 µM.
As to `O=Cc1cc2ccccc2nc1SCc1ccc(Cl)c(Cl)c1`, the cell count in assay [1] turned out to be 109%. Besides, in assay [2], the IC50 is > 10 µM (inactive).
On the same counts, the results for `COc1ccc(N=c2oc3ccc(OC)cc3cc2-c2nc3ccccc3[nH]2)cc1` are 110% and > 10 µM (inactive).
In the case of `CCC(C)[C@@H](NC(=O)OC(C)(C)C)c1nnc(S(=O)(=O)Cc2cccc(C)c2)o1` (stereo partly specified), the cell count in assay [1] was determined as 95.6%. Besides, the IC50 in assay [2] was > 10 µM (inactive).
On the same counts, the results for `CN(C)c1ccc(C(=O)c2ccc(N(C)C)c3ccccc23)cc1` are 27.7% and 1.72 µM.
The like results for `Oc1ccc(Nc2nc(-c3ccc4ccccc4c3)cs2)cc1` were, in that order, 92.9% and > 10 µM (inactive).
The like results for `CCN(CC)c1ccc2cc(-c3nc4ccccc4n3C)c(=O)oc2c1` were, in that order, 106% and > 10 µM (inactive).
`CCCOc1ccccc1C1CC(=O)Nc2cc3c(cc21)OCCO3` (stereo unspecified) came in with a cell count in assay [1] of 113%. Also, in assay [2], the IC50 is > 10 µM (inactive).
On the same counts, the results for `O=C(N/N=C/C=C/c1ccccc1)c1n[nH]c2c1CCC2` are 103% and > 10 µM (inactive).
On the same counts, the results for `O=C(OCn1ncc(Br)c(Br)c1=O)c1c(F)cccc1F` are 54.9% and 8.04 µM.
In the case of `O=C(N/N=C/C(Br)=C/c1ccccc1)c1n[nH]c2c1CCC2`, the cell count in assay [1] stood at 28.6%. The IC50 in assay [2] was 0.0993 µM.
The like results for `O=S(=O)(c1ccc(Cl)c(Cl)c1)c1snnc1-c1ccccc1` were, in that order, 99.6% and 7.93 µM.
On the same counts, the results for `Cc1ccc2nc(SCC(=O)Nc3cc(C(F)(F)F)ccc3N3CCOCC3)[nH]c2c1` are 105% and > 10 µM (inactive).
The like results for `O=C1c2cccc3c([N+](=O)[O-])ccc(c23)C(=O)N1c1nccs1` were, in that order, 101% and > 10 µM (inactive).
In assay [1], `Cc1cccc(OCC(=O)Nc2cc(C)ccc2O)c1` had a cell count of 91.2%. Besides, the half-inhibitory concentration (IC50) in assay [2] is 0.452 µM.
On the same counts, the results for `CCn1c2ccccc2c2cc(NC(=O)c3cc(OC)c(OC)c(OC)c3)ccc21` are 33.6% and 2.79 µM.
The like results for `O=C(c1ccc([N+](=O)[O-])cc1)N(Cc1ccc(Cl)cc1)N1C(=O)CCCC1=O` were, in that order, 91.5% and > 10 µM (inactive).
On the same counts, the results for `COC(=O)c1ccccc1NC(=O)Cn1c(-c2nonc2N)nc2ccccc21` are 104% and > 10 µM (inactive).
For `O=C(N/N=C/C(Br)=C\c1ccccc1)c1n[nH]c2c1CCC2`, the cell count in assay [1] amounted to 29.2%. Also, in assay [2], the IC50 is 0.636 µM.
On the same counts, the results for `C/C(=N\O)c1ccc2c3ccccc3n(C)c2c1` are 89% and > 10 µM (inactive).
The like results for `CCc1ccc2oc(-c3cc(N)ccc3O)nc2c1` were, in that order, 97.7% and > 10 µM (inactive).
On the same counts, the results for `NC(=S)N/N=C\c1ccc(-c2cccc(Cl)c2Cl)o1` are 106% and > 10 µM (inactive).
In assay [1], `CCOC(=O)c1[nH]c(C)c(C(=O)c2ccc(C)cc2)c1C` registered a cell count of 85.6%. Besides, in assay [2], the IC50 is > 10 µM (inactive).
On the same counts, the results for `COc1ccc(C(=O)C(CN2CCCC2)c2ccccc2)cc1` (stereo unspecified) are 73.4% and 2.07 µM.
On the same counts, the results for `COc1cc2c(O)c3c(c(-c4ccc5c(c4)OCO5)c2cc1OC)C(=O)OC3` are 86.8% and 3.24 µM.
The like results for `CC1CCC/C=C/C2CC(O)CC2C(O)/C=C/C(=O)O1` (stereo unspecified) were, in that order, 19.2% and 0.112 µM.
In assay [1], `COc1cc(/C=N/Nc2snc(SC)c2C#N)ccc1O` returned a cell count of 105%. Further, the IC50 in assay [2] is > 10 µM (inactive).
On the same counts, the results for `CCCOc1ccc(C(=O)C(CN2CCOCC2)c2ccccc2)cc1` (stereo unspecified) are 79.7% and 5.2 µM.
The like results for `COc1ccc(CS(=O)(=O)/C(Cl)=C(/Cl)C(=O)Nc2ccc(OC)nc2)cc1` were, in that order, 2.22% and 2 µM.
